Here are results for 23 compounds from PubChem BioAssay AID264 (DTP/NCI, 2004).

The assay deals with nude mice, LX-1 lung xenograft intrarenal, tumor weight T/C. The assay is described as follows: NCI In Vivo Anticancer Drug Screen. Data for tumor model Human Lung LX-1 Xenograft (intrarenal inoculation) in NU/NU Swiss (nude) mice. Particulars: endpoint: mean tumor weight change, higher = larger tumour. The gist of the method: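 Antitumor effect is expressed as a ratio: the mean tumor measurement of the drug-treated group relative to that of the vehicle-dosed control group.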

Setting [1] is: dose: 75.0 mg/kg/injection, schedule: Q04DX003 (sc), vehicle: Klucel (hydroxypropylcellulose) (HPC).
Setting [2] is: dose: 150.0 mg/kg/injection, schedule: Q04DX003 (sc), vehicle: Klucel (hydroxypropylcellulose) (HPC).
Where [3] appears, read: dose: 300.0 mg/kg/injection, schedule: Q04DX003 (sc), vehicle: saline with Tween-80.
Where [4] appears, read: dose: 600.0 mg/kg/injection, schedule: Q04DX003 (sc), vehicle: saline with Tween-80.
Where [5] appears, read: dose: 600.0 mg/kg/injection, schedule: Q04DX003 (sc), vehicle: water.
[6] abbreviates: dose: 1200.0 mg/kg/injection, schedule: Q04DX003 (sc), vehicle: water.
Setting [7] is: dose: 100.0 mg/kg/injection, schedule: Q01DX010 (sc), vehicle: Klucel (hydroxypropylcellulose) (HPC).
[8] abbreviates: dose: 200.0 mg/kg/injection, schedule: Q01DX010 (sc), vehicle: Klucel (hydroxypropylcellulose) (HPC).
Setting [9] is: dose: 75.0 mg/kg/injection, schedule: Q04DX003 (sc), vehicle: saline with Tween-80.
Where [10] appears, read: dose: 150.0 mg/kg/injection, schedule: Q04DX003 (sc), vehicle: saline with Tween-80.

Where “and” joins values, the source holds several entries; their conditions need not be identical. Identical values can stand only once. Results filed as inconclusive are left out.

Regarding `O=C1C2(Cl)C3(Cl)C4(Cl)C(Cl)(Cl)C5(Cl)[C@]3(Cl)C1(Cl)[C@]5(Cl)C24Cl` (stereo partly drawn), the T/C is 118 % of control (dose: 37.5 mg/kg/injection, schedule: Q04DX003 (sc), vehicle: Klucel (hydroxypropylcellulose) (HPC)); 95 % of control under setting [1]; 78 % of control under setting [2].
Consider `O=C1N[C@@H]2C(=C[C@H](O)[C@@H](O)[C@H]2O)c2cc3c(c(O)c21)OCO3`, for which the T/C (dose: 2.5 mg/kg/injection, schedule: Q04DX003 (sc), vehicle: saline with Tween-80) is 97 % of control and the T/C (dose: 5.0 mg/kg/injection, schedule: Q04DX003 (sc), vehicle: saline with Tween-80) was 109 % of control.
Consider `CCCCCCCC(=O)N/N=C(\CO)[C@]1(O)Cc2c(O)c3c(c(O)c2[C@@H](OC2CC(N)C(O)C(C)O2)C1)C(=O)c1c(OC)cccc1C3=O` (stereo partly drawn), for which the T/C by setting is: (dose: 12.5 mg/kg/injection, schedule: Q01DX010 (sc), vehicle: water) 40 % of control; (dose: 25.0 mg/kg/injection, schedule: Q01DX010 (sc), vehicle: water) 63 % of control; (dose: 50.0 mg/kg/injection, schedule: Q01DX010 (sc), vehicle: water) 24 % of control.
Take `[O-][n+]1c(CN2CCCCC2)nc2cccc3c2c1-c1ccccc1-3`: the T/C was 82 % of control under setting [3]; 68 % of control under setting [4]; 77 % of control (dose: 1200.0 mg/kg/injection, schedule: Q04DX003 (sc), vehicle: saline with Tween-80); 109 % of control (dose: 2400.0 mg/kg/injection, schedule: Q04DX003 (sc), vehicle: saline with Tween-80).
Consider `COC12C(COC(N)=O)C3=C(C(=O)C(C)=C(N)C3=O)N1CC1C2N1C` (stereo not drawn), for which the T/C (dose: 8.0 mg/kg/injection, schedule: Q01DX010 (sc), vehicle: saline) is 1 % of control and -17 % of control.
Consider `N=c1nc2n(cc1F)[C@@H]1O[C@H](CO)[C@@H](O)[C@@H]1O2`, for which the T/C (dose: 300.0 mg/kg/injection, schedule: Q04DX003 (sc), vehicle: suspension in saline) is 102 % of control; the T/C (dose: 600.0 mg/kg/injection, schedule: Q04DX003 (sc), vehicle: suspension in saline) is 57 % of control; the T/C (dose: 1200.0 mg/kg/injection, schedule: Q04DX003 (sc), vehicle: suspension in saline) is 80 % of control; the T/C (dose: 2400.0 mg/kg/injection, schedule: Q04DX003 (sc), vehicle: suspension in saline) was 87 % of control.
For the compound `CCNC(=O)[B-][N+](C)(C)C`, the T/C runs as follows: (dose: 100.0 mg/kg/injection, schedule: Q04DX003 (sc), vehicle: Klucel (hydroxypropylcellulose) (HPC)) 108 % of control; (dose: 200.0 mg/kg/injection, schedule: Q04DX003 (sc), vehicle: Klucel (hydroxypropylcellulose) (HPC)) 73 % of control; (dose: 400.0 mg/kg/injection, schedule: Q04DX003 (sc), vehicle: Klucel (hydroxypropylcellulose) (HPC)) 48 % of control.
For `Cc1noc(N)c1N`, the T/C reads like this: under setting [5], 106 % of control; under setting [6], 94 % of control.
In the case of `CN(C)N=Nc1ccc(S(N)(=O)=O)cc1`, the T/C reads like this: under setting [7], 1 % of control and 8 % of control; under setting [8], 3 % of control and 9 % of control; (dose: 800.0 mg/kg/injection, schedule: Q01DX010 (sc), vehicle: Klucel (hydroxypropylcellulose) (HPC)) 16 % of control.
Take `O=C(O)C1(C(=O)O)CCC1.[NH2-].[NH2-].[Pt+2]`: the T/C reads like this: (dose: 6.25 mg/kg/injection, schedule: Q01DX010 (sc), vehicle: dextrose) 73 % of control; (dose: 12.5 mg/kg/injection, schedule: Q01DX010 (sc), vehicle: dextrose) 88 % of control; (dose: 25.0 mg/kg/injection, schedule: Q01DX010 (sc), vehicle: dextrose) 68 % of control.
On to `C[C@]12CC[C@@H]3c4ccc(OC(=O)Cc5ccc(N(CCCl)CCCl)cc5)cc4CC[C@H]3[C@@H]1CC[C@@H]2OC(=O)Cc1ccc(N(CCCl)CCCl)cc1`, for which the T/C is 83 % of control (dose: 200.0 mg/kg/injection, schedule: Q04DX003 (sc), vehicle: saline with Tween-80); 107 % of control (dose: 400.0 mg/kg/injection, schedule: Q04DX003 (sc), vehicle: saline with Tween-80); 116 % of control (dose: 800.0 mg/kg/injection, schedule: Q04DX003 (sc), vehicle: saline with Tween-80); 90 % of control (dose: 1600.0 mg/kg/injection, schedule: Q04DX003 (sc), vehicle: saline with Tween-80).
Consider `CC(C)NC(=O)OCc1c(COC(=O)NC(C)C)c(-c2ccc(Cl)c(Cl)c2)n2c1CCC2`, for which the T/C reads like this: (dose: 25.0 mg/kg/injection, schedule: Q01DX010 (sc), vehicle: distilled water + Tween-80) 27 % of control; (dose: 200.0 mg/kg/injection, schedule: Q04DX003 (sc), vehicle: distilled water + Tween-80) 68 % of control; (dose: 400.0 mg/kg/injection, schedule: Q04DX003 (sc), vehicle: distilled water + Tween-80) 50 % of control; (dose: 800.0 mg/kg/injection, schedule: Q04DX003 (sc), vehicle: distilled water + Tween-80) 40 % of control; (dose: 1600.0 mg/kg/injection, schedule: Q04DX003 (sc), vehicle: distilled water + Tween-80) 90 % of control.
Take `COC1C(O)C(C)OC(OC2C(Oc3cccc4c(O)c5c(=O)oc6ccc(C)c7c(=O)oc(c34)c5c67)OC(C)C(O)C2O)C1O` (stereo not drawn): the T/C (dose: 50.0 mg/kg/injection, schedule: Q01DX010 (sc), vehicle: Klucel (hydroxypropylcellulose) (HPC)) is 84 % of control; the T/C under setting [7] is 63 % of control; the T/C under setting [8] is 54 % of control; the T/C (dose: 400.0 mg/kg/injection, schedule: Q01DX010 (sc), vehicle: Klucel (hydroxypropylcellulose) (HPC)) was 58 % of control.
For `COC(=O)Nc1ccc(Cc2ccc(NC(=O)OC)cc2)cc1`, the T/C (dose: 800.0 mg/kg/injection, schedule: Q01DX010 (sc), vehicle: saline with Tween-80) is 68 % of control.
`COc1cc2c3c(cccc3c1)C(=O)N(CCN(C)C)C2=O`: the T/C was 98 % of control under setting [9], 115 % of control under setting [10], 53 % of control under setting [3] and 79 % of control under setting [4].
Consider `BrC1CC(Br)c2c1c1c(c3c2C(Br)CC3Br)C(Br)CC1Br` (stereo not drawn), for which the T/C runs as follows: (dose: 300.0 mg/kg/injection, schedule: Q04DX003 (sc), vehicle: water) 46 % of control; under setting [5], 43 % of control; under setting [6], 29 % of control; (dose: 2400.0 mg/kg/injection, schedule: Q04DX003 (sc), vehicle: water) 29 % of control.
Consider `Cc1cc(Nc2ccc3c(c2)OCO3)c2cc3c(cc2n1)OCO3`, for which the T/C under setting [2] is 113 % of control; the T/C (dose: 300.0 mg/kg/injection, schedule: Q04DX003 (sc), vehicle: Klucel (hydroxypropylcellulose) (HPC)) is 155 % of control; the T/C (dose: 1200.0 mg/kg/injection, schedule: Q04DX003 (sc), vehicle: Klucel (hydroxypropylcellulose) (HPC)) was 123 % of control.
`CC[N+](CC)(CC)CC`: the T/C (dose: 1.5 mg/kg/injection, schedule: Q01DX010 (sc), vehicle: saline with Tween-80) was 88 % of control; the T/C (dose: 12.0 mg/kg/injection, schedule: Q01DX010 (sc), vehicle: saline with Tween-80) is 25 % of control and 49 % of control.
In the case of `[Cl][Sn]([c]1ccccc1)[c]1ccccc1`, the T/C (dose: 150.0 mg/kg/injection, schedule: Q04DX003 (sc), vehicle: saline) was 92 % of control and the T/C (dose: 600.0 mg/kg/injection, schedule: Q04DX003 (sc), vehicle: saline) was 84 % of control.
Consider `CCN(CC)c1ccc2cc(-c3nc4ccccc4n3C)c(=O)oc2c1`, for which the T/C by setting is: under setting [1], 105 % of control; under setting [2], 81 % of control.
Turning to `CCOC(=O)Nc1cc2c(c(N)n1)N=C(c1ccc(Cl)cc1Cl)CN2`, the T/C is, setting by setting: (dose: 37.5 mg/kg/injection, schedule: Q04DX003 (sc), vehicle: saline with Tween-80) 82 % of control; under setting [9], 76 % of control; under setting [10], 64 % of control; under setting [3], 66 % of control.
Consider `O=C[C@@H](CO)O[C@H](C=O)n1cnc2c(=O)[nH]cnc21`, for which the T/C is, setting by setting: (dose: 100.0 mg/kg/injection, schedule: Q04DX003 (sc), vehicle: suspension in saline) 71 % of control; (dose: 200.0 mg/kg/injection, schedule: Q04DX003 (sc), vehicle: suspension in saline) 57 % of control; (dose: 400.0 mg/kg/injection, schedule: Q04DX003 (sc), vehicle: suspension in saline) 59 % of control; (dose: 800.0 mg/kg/injection, schedule: Q04DX003 (sc), vehicle: suspension in saline) 54 % of control.
Consider `O=C(/C=C(\Cl)C(=O)NO)NO`, for which, under “dose: 100.0 mg/kg/injection, schedule: Q04DX003 (sc), vehicle: saline”, the T/C was 103 % of control.
